From patent US20260028390A1, “ALPHA1-ANTITRYPSIN FOR USE IN THE TREATMENT OF DISEASES OR DISORDERS OF THE NERVOUS SYSTEM SUCH AS CHRONIC INFLAMMATORY DEMYELINATING POLYNEUROPATHY” (Ageronix SA, priority 2022, published 2026)
Several values for one entry are separate records, joined by “and”; a condition that tells them apart may be missing. Equal values may be shown once.

How the values were obtained:
Type in all cases: in vivo
[1] = system: C3-PMP22 transgenic mice (CMT1A); experiment: Grip strength test, CMT1A mouse study (50 mg/kg twice daily); settings: for Grip strength (Mean ± SEM) / Grip strenght, Mean/animal / Grip strenght, set 1, individual animals / Grip strenght, set 2, individual animals / Grip strenght, set 3, individual animals: CMT1A + AAT
Text: (§1) As a murine model of CMT1A we used C3-PMP22 transgenic mice (B6.Cg-Tg(PMP22)C3Fbas/J, The Jackson Laboratory) which express three copies of a wild-type human peripheral myelin protein 22 (PMP22) gene (Verhamme, Camiel, et al. Journal of Neuropathology & Experimental Neurology 70.5 (2011): 386-398). Mice were housed in macrolon cages with filter hoods, in a continuously air-filtered room, thereby avoiding contamination. During experiments, paired animals were caged at a constant temperature with a day/night cycle of 12/12 hours. Animals were fed (control tap water and nutrition) ad libitum. Animal protocol is approved by the Animal Studies Committee of Languedoc Roussillon. This protocol and the laboratory procedures comply with French legislation, which implements the European Directives (Reference Number: D3417223, APAFIS #23920-2020020320279696 v3). Animal health was followed on a daily basis to ensure that only animals in good health enter the testing procedures and follow up the study.
(§2) Animals were split in 3 groups (wild-type control (subcutaneous 0.9% NaCl), CMT1A-vehicle (subcutaneous 0.9% NaCl), CMT1A-human alpha-1 antitrypsin (subcutaneous, twice daily, 50 mg/kg per injection)) of 3 mice each (3 weeks old males of 18±2.5 g at the beginning of study) and all went through the following protocol after 7 days of acclimation on site.
(§3) On the first and last day of treatment, the neuromuscular performance of animals was tested with a rotarod test, grip test and sciatic nerve electrophysiology test. After the last treatment at 8 weeks, these tests were repeated, and animals were sacrificed and the left sciatic nerve was sampled for histological evaluation of the number and size of […].
Grip strength test measures neuromuscular strength by assessing the animal's grasp of a metal grid. […] At the baseline, the differences of grip strengths between groups were not statistically significant.

[2] = system: C3-PMP22 transgenic mice (CMT1A); experiment: Rotarod test, CMT1A mouse study (50 mg/kg twice daily); settings: for Rotarod latency, Mean/animal / Rotarod latency, set 1, individual animals / Rotarod latency, set 2, individual animals / Rotarod latency, set 3, individual animals: CMT1A + AAT; for Rotarod latency (Mean ± SEM): CMT1A mice
Text: as §1, §2, §3
The rotarod test measures neuromuscular coordination by assessing the capacity of the animals to stay in balance on a rotating cylinder. Similar rotarod latency was observed between groups at the baseline (6 weeks old).

[3] = system: plasma TMPRSS5; experiment: Plasma TMPRSS5, CIDP mouse model; settings: CIDP + AAT
Experimental: C57BL/6 mice were received at 8 weeks of age and housed under controlled conditions for the duration of the study. Three groups of 4 animals each were assigned to the following subcutaneous treatments twice daily at 7:00 AM and 7:00 PM for 2 weeks, from 20 to 35 days after the start of disease induction: • Wild type (WT) mice receiving the vehicle, 0.9% NaCl (positive control) • CIDP mice receiving the vehicle, 0.9% NaCl (negative control) • CIDP mice receiving human AAT (AAT), 50 mg/kg per injection
On the day preceding disease induction (Day 1), on the first (Day 20) and on the last (Day 35) treatment day, animals were subjected to blood samplings for the determination of neurofilament light chain (NfL), tumour necrosing factor alpha (TNFα) and TMPRSS5 levels, as described in FIG. 20. In addition, plasma levels of AAT were evaluated on the last treatment day.

[4] = CMT1A mice treated with AAT, 8 weeks old

## alpha1-antitrypsin (AAT) protein
[1]; 6 weeks old
  Grip strength (Mean ± SEM): 5.86 ± 0.57 newtons
[1]; 6 weeks old (baseline)
  Grip strenght, Mean/animal: 5.10 Newtons and 6.97 Newtons and 5.51 Newtons
  Grip strenght, set 1, individual animals: 5.84 Newtons and 7.10 Newtons and 5.94 Newtons
  Grip strenght, set 2, individual animals: 7.62 Newtons and 7.19 Newtons and 3.08 Newtons
  Grip strenght, set 3, individual animals: 1.82 Newtons and 6.62 Newtons and 7.52 Newtons
[1]; 8 weeks old
  Grip strenght, Mean/animal: 5.45 Newtons and 4.86 Newtons and 3.88 Newtons
  Grip strenght, set 1, individual animals: 6.55 Newtons and 4.01 Newtons and 2.76 Newtons
  Grip strenght, set 2, individual animals: 4.38 Newtons and 6.93 Newtons and 3.67 Newtons
  Grip strenght, set 3, individual animals: 5.43 Newtons and 3.63 Newtons and 5.21 Newtons
  Grip strength (Mean ± SEM): 4.73 ± 0.46 newtons
[1]; [4]
  grip strength compared to the control group: improvement
[2]; 6 weeks old (baseline)
  Rotarod latency, Mean/animal: 84.36 s and 71.19 s and 72.91 s
  Rotarod latency, set 1, individual animals: 85.0 s and 51.4 s and 59.6 s
  Rotarod latency, set 2, individual animals: 102.6 s and 93.4 s and 92.1 s
  Rotarod latency, set 3, individual animals: 65.5 s and 68.8 s and 67.1 s
  Rotarod latency (Mean ± SEM): 76.15 ± 4.13 s
[2]; 8 weeks old
  Rotarod latency, Mean/animal: 49.76 s and 64.65 s and 56.12 s
  Rotarod latency, set 1, individual animals: 62.1 s and 83.2 s and 46.0 s
  Rotarod latency, set 2, individual animals: 35.7 s and 39.5 s and 46.0 s
  Rotarod latency, set 3, individual animals: 51.5 s and 71.3 s and 76.4 s
[2]; [4]
  rotarod latency compared to the control group: improvement
[2]; 8 weeks old, AAT 50 mg/kg sc twice daily
  Rotarod latency (Mean ± SEM): 56.84 ± 4.31 s
[3]
  plasma TMPRSS5 concentration compared to the vehicle group: No statistically significant differences
